Melting point data for 64 compounds are collected here from a melting point compilation (Tetko et al.; mined from patent text by program, amines drawn as free bases though some values may be those of a salt).

SMILES strings stand for the structures.

A word on the melting point: it is the temperature of the solid-liquid transition. `CCOCCOc1cc(C(F)(F)F)cc(N(N)C(=CNS(C)(=O)=O)[N+](=O)[O-])n1`: the melting point came out at 153 °C.

`CC(C)(C)C1CCc2oc(=O)c(-c3ccccc3)c(O)c2C1` (centres undefined) came in with a melting point of 195 °C.

In turn, `C=CCOc1cc(C)ccc1[N+](=O)[O-]` came in with a melting point of 30 to 32 °C.

`COc1ccc(-c2cc(F)c(F)cc2-c2ccc(S(N)(=O)=O)cc2)cc1C`: the melting point was 120 to 122 °C.

With `CCn1c(N)c(C(=O)NC)c(=O)c2ccc(-c3ccc(CC(=O)O)cc3)nc21`, the melting point was 260 °C.

Take `CCOC(=O)c1cnoc1-c1cccc(Cl)c1`: the melting point was in the range of 75 to 77 °C.

As for `CN1CCc2c(sc3c2C(=O)N(CCCl)CN3)C1`, the melting point was 159 to 161 °C.

The compound `Cc1cccc(Nc2cc(Nc3cccc(OCC(N)=O)c3)ncn2)c1` displayed a melting point of 192 to 194 °C.

As to `Clc1cc(Cl)c(Cl)nn1`, the melting point lay within 57 to 58 °C.

The compound `CCOc1cccc(C(COc2ccccc2)n2nc(C(=O)O)c3c2-c2ccc(OCc4cncnc4)cc2CC3)c1` (centres undefined) showed a melting point of 190 to 192 °C.

Turning to `CC(C)(C)OC(=O)NCCCn1c2c(c3ccc(NCC(=O)O)cc3c1=O)C(=O)c1ccccc1-2`, the melting point lay within 190 to 192 °C.

In turn, `[N-]=[N+]=NCCCn1cnc(-c2ccc(F)cc2)c1-c1ccncc1` returned a melting point of 64 to 65 °C.

For `O=C1Cc2c(cc(Br)c3ccccc23)C(c2ccccc2F)N1` (centres undefined), the melting point was 257 to 260 °C.

For the compound `CC(C)(c1ccccc1)n1nnc(-c2ccccc2-c2ccc(CBr)cc2)n1`, the melting point fell in the range of 108 to 109 °C.

Turning to `CNc1cc(O)cc(O)c1`, the melting point worked out at 130 °C.

Take `Cn1cc(-c2c(-c3ccccc3F)nn3ccncc23)ccc1=O`: the melting point lay within 193 to 194 °C.

The compound `CC(C)c1cccc(NC(=O)c2ccccc2[N+](=O)[O-])c1` showed a melting point of 65.5 to 68.5 °C.

With `Cc1cc(N2CC=C(C(=O)OC(C)C)CC2)c2cccc(-c3ccc(Cl)cc3Cl)c2n1`, the melting point is 131 to 133 °C.

On to `O=C1NC(=O)C(CCOc2ccccc2)S1` (centres undefined), for which the melting point lay within 81 to 83 °C.

The compound `Cn1ncc2c1C(=O)Nc1cccnc1N2` gave a melting point of 304 to 305 °C.

`Nc1ccc(Cn2nc3ccccc3n2)cc1` yielded a melting point of 229 to 230 °C.

`COC(=O)C(Cl)Cc1ccc(-n2c(=O)cc(C(F)(F)F)n(C)c2=O)c(F)c1` (centres undefined) returned a melting point of 101 to 103 °C.

For `CCCCOc1nc(N)c2[nH]c(=O)n(CCCNCc3cccc(C(=O)OC)c3)c2n1`, the melting point was in the range of 214 to 218 °C.

In turn, `CN1C(=O)C[C@]2(c3ccccc3)CCCC[C@H]2C1=O` (relative stereo) returned a melting point of 151 to 153 °C.

As to `Cc1cc(Oc2cccc(C(F)(F)F)c2)nn1C(=O)Nc1ccccc1Cl`, the melting point was in the range of 84 to 86 °C.

Take `COC(=O)c1ccc(Cl)cc1O`: the melting point was 27 to 30 °C.

For `CNC(=O)c1ccc(N2CCNCC2)c(Cl)c1`, the melting point lay within 176 to 189 °C.

In the case of `COc1cc2c(cc1O)CCN(Cc1cccc(OC)c1OC)C2`, the melting point lay in the range of 101 to 102 °C.

On to `CCN(CC)C(=O)c1ccccc1-c1ccc(F)cc1`, for which the melting point lay within 57 to 59 °C.

As for `CN(O)CCc1ccc2c(c1)C(=O)c1ccccc1CO2`, the melting point was 101 to 102 °C.

As to `CCCN(CCC)C(=O)Cn1c(=O)[nH]c2cnc(-c3ccc(Cl)cc3)nc21`, the melting point lay within 177 to 178 °C.

Compound `NCCC(Nc1ccccc1)c1ccccc1` (centres undefined) yielded a melting point of 104 to 105 °C.

Compound `CN(N(S(C)(=O)=O)S(C)(=O)=O)S(C)(=O)=O` came in with a melting point of 123 to 124 °C.

Take `CCCCCCCCCCOc1cc2c(cc1CCC(=O)O)C(=O)c1cc(C(=O)O)ccc1-2`: the melting point is 218 to 220 °C.

Take `Clc1ccc(-c2nc(Br)cnc2Br)cc1`: the melting point lay in the range of 123 to 125 °C.

Take `CCOC(=O)[C@@H](O)[C@@H]1OC(=O)c2c1cc(OC)c(OC)c2OC`: the melting point is 111 to 112 °C.

In the case of `Oc1ccc(C(=S)c2ccc(-c3ccccc3)cc2)c(O)c1`, the melting point lay within 114 to 116 °C.

In the case of `CC(C)(C)OC(=O)N[C@H]1CCCC[C@@H]1O`, the melting point fell in the range of 103 to 105 °C.

In the case of `OC(Cn1cncn1)(c1ccc(Cl)cn1)c1ccc(Cl)cc1Cl` (centres undefined), the melting point was 149 to 150 °C.

For `Cc1ccc(-c2ccc(C(=O)c3ccccc3)cc2)cc1`, the melting point lay in the range of 124 to 125 °C.

In turn, `Cn1ncc2c1-c1c(Oc3ccc(F)cc3)sc(C(N)=O)c1CC2` displayed a melting point of 188 to 189 °C.

Regarding `Nc1nccc(-c2c(-c3ccc(F)cc3)ncn2C2CCNCC2)n1`, the melting point is 199 to 200 °C.

Compound `CCn1c(=O)c(-c2cc(OC)cc(OC)c2)cc2cnc(Nc3ccncc3)nc21` displayed a melting point of 305 to 307 °C.

`CCOC(=O)CCC(=O)c1ccc(OCCCCCBr)c(CCC(=O)OCC)c1` displayed a melting point of 40 to 41 °C.

Consider `Cc1c(C(F)(F)F)n(C)c(=O)n(-c2cc(N)c(C#C[Si](C)(C)C)cc2F)c1=O`, for which the melting point was in the range of 192 to 198 °C.

For `Cc1ccc(C(=O)COc2ccc(F)cc2)cc1`, the melting point lay in the range of 95 to 96 °C.

Turning to `CC(=O)c1csc2ccc(F)cc12`, the melting point was in the range of 90 to 92 °C.

Compound `CSc1ccc(C(O)c2occc(=O)c2OCc2ccccc2)cc1` (centres undefined) returned a melting point of 82 to 82.5 °C.

Consider `Cc1c(NS(=O)(=O)c2ccccc2)cc(C(C)(C)C)cc1SC1=C(O)CC(CCc2ccc(O)cc2)(C2CCCC2)OC1=O` (racemic), for which the melting point was in the range of 125 to 127 °C.

`CCc1nnc(-c2ccc(-c3ccccc3)cc2)n1-c1cccc2cnccc12` gave a melting point of 228 to 230 °C.

`COc1cc2[nH]c3cc(OC)c(OC)cc3c2cc1OC`: the melting point lay in the range of 232 to 233 °C.

The compound `Cn1c(C(F)(F)F)cc(=O)n(-c2cc(Oc3ccccc3O)c(Cl)cc2F)c1=O` came in with a melting point of 55.4 °C.

With `Cc1ccnc(NC(=O)c2nnc3ccccc3c2O)c1`, the melting point fell in the range of 339 to 341 °C.

The compound `CC1(C)C=C(n2cc(C#N)c3ccccc32)c2cc(C#N)ccc2O1` showed a melting point of 192 to 193 °C.

As for `CC1CCN(CC(=O)N2c3ccccc3N(C)S(=O)(=O)c3ccccc32)CC1`, the melting point is 159 to 160 °C.

On to `COC(=O)c1ccc2occ(-c3ccc(SC)cc3)c2c1`, for which the melting point lay within 95 to 96 °C.

Turning to `N#Cc1cccc2c1[nH]c1ccccc12`, the melting point lay in the range of 200 to 201 °C.

On to `O=c1c(Cc2ccncc2)c(-c2ccc(F)cc2)[nH]c2ccccc12`, for which the melting point fell in the range of 144 to 146 °C.

As for `CC(C)(C)c1ccc2c(c1)-c1c(c(C(=O)C(C#N)C(=O)NCc3ccccc3)nn1-c1ccccc1)CO2` (centres undefined), the melting point fell in the range of 281 to 284 °C.

In turn, `OC(c1ccc(Br)cc1)c1ccc(Br)cc1` displayed a melting point of 112 to 113 °C.

`CC(C)(C)c1cc(CCc2ccccc2NC(=O)NC2CCN(Cc3cccc(F)c3)CC2)cc(C(C)(C)C)c1O` registered a melting point of 99 to 100 °C.

As to `N#Cc1cnn2c(-c3ccccc3C(F)(F)F)ccnc12`, the melting point is 196 to 197 °C.

In turn, `CCOC(=O)c1ccc2c(c1)C(=O)NC(C(Cl)(Cl)Cl)N2` (centres undefined) returned a melting point of 243 to 244 °C.

Take `CC[C@H](C)[C@H](NC(=O)/C=C1/c2ccccc2C(=S)N[C@H]1[C@@H](C)CC)C(=O)N[C@H](C(=O)OC)[C@@H](C)CC`: the melting point fell in the range of 178 to 181 °C.
